# Source: US7964595B2, “Thiophenyl prostaglandin derivatives for treating glaucoma and ocular hypertension” (Allergan, Inc., priority 2008, dated 2011)
# Test system: lashes and adjacent hairs of patients
# Assay: Clinical observation of eyelash/hair growth in glaucoma patients treated in one eye
# Format: in vivo
# Conditions: glaucoma patients treated in one eye only
# Text: In the course of treating patients having glaucoma, treatment may only be appropriate in one eye. […] The lash appearance on the lids of the treated eyes would have appeared quite attractive if it represented a bilateral phenomenon. As a result of its asymmetric nature, the long lashes on one side could be construed as disturbing from a cosmetic standpoint. A systemic examination was preformed as a result of the asymmetric phenomenon. It soon became apparent that this altered appearance was not an isolated finding. […] Definite differences could be identified to varying degrees in the lashes and adjacent hairs of all patients who were taking the drug on a unilateral basis for longer than 6 months.
# The changes in the lashes were apparent on gross inspection in several patients once attention was focused on the issue. In those with light colored hair and lashes, the differences were only seen easily with the aid of the high magnification and lighting capabilities of the slit lamp biomicroscope. In the course of glaucoma follow-up examination, attention is generally immediately focused on the eye itself. As a result of the high power magnification needed only one eye is seen at a time and the eye is seen at a high enough power that the lashes are not in focus. […]
smiles,measurement,value
CCNC(=O)CCC/C=C\C[C@@H]1[C@@H](/C=C/[C@@H](O)CCc2ccccc2)[C@H](O)C[C@@H]1O [bimatoprost],lash appearance in treated eye versus non-treated eye,"longer, thicker, and fuller"
